The values below come from US6541483B2, “Acridone-derived compounds useful as antineoplastic and antiretroviral agents” (The United States of America as represented by the …, priority 1996, dated 2003).

In data set [1] the test system is HIV-1 LTR-directed chloramphenicol acetyltransferase (CAT) activity. Description: LTR-directed CAT activity in BF-24 cells. It counts as cell-based. Particulars: 24 h, temacrazine up to 5 μM. The source says: Initiation and regulation of HIV-1 transcription requires a complex series of interactions with cellular transcription factors, such as NFkB, SP-1 and AP-1, and the participation of cellular factors in the transcriptional complex. In addition, the post-integrative model used here requires TNFα stimulated U1 and ACH-2 cells, this model requires not only the participation of the NFkB transcriptional complex, and also components of the TNFα signaling pathway. In order to rule out that temacrazine was non-specifically effecting transcription or down-regulating replication by interfering with the TNFα signal pathway, LTR-directed chloramphenicol acetyltransferase (CAT) activity was measured in BF-24 cells. BF-24 cells are derived from the THP-1 monocytic cell line and carry a stably integrated CAT gene under the transcriptional control of the HIV-1 LTR (S. Schwartz, et al., Proc. Natl. Acad. Sci. USA 86:7200 (1989); B. K. Felber, et al., Science 239:184 (1988)). The LTR in this monocytic cell line is inducible by IL-6, PMA and TNFα, and produces enzymatically active chloramphenicol transferase (“CAT”). […]
CAT activity was determined using a fluorescent Bodipy conjugated chloramphenicol after 18 h of reaction with 50 μg of protein extract containing Acetyl CoA.

In data set [2] the test system is cell lines derived from tumor xenografts. In words: clonogenic assay, mean over all tumor xenograft lines. It counts as cell-based, human. Conditions: all of the lines tested. The protocol: (§1) The activity of compound (4) was tested against several tumor xenografts in vitro. The experiments was carried out on cell lines derived from these tumors, utilizing a standard clonogenic assay protocol.

The test system of data set [3] is gastric carcinoma GFX (251/14). In words: clonogenic assay, gastric carcinoma line. It counts as cell-based, human. The protocol: as §1
Data set [4] has as its system mammary tumor MACL (MCF7X/13). Description: clonogenic assay, mammary tumor line. It counts as cell-based, human. The protocol: as §1
The next data set has as its system melanoma MEXF (514/12). Description: clonogenic assay, melanoma line. It counts as cell-based, human. Here is the method:
as §1

Data set [5] has as its system renal carcinoma RXF (1220/5). Description: clonogenic assay, renal carcinoma line. It counts as cell-based, human. The protocol:
as §1

Data set [6] has as its system prostate cancer cell line PRXF (PX2M/27), PC3M. Description: clonogenic assay, prostate cancer line PC3M. It counts as cell-based, human. Here is the method:
as §1

Data set [7] has as its system prostate cancer cell line PRXF (DU145X/2). Description: clonogenic assay, prostate cancer line DU145X. It counts as cell-based, human. Here is the method: as §1
The test system of data set [8] is HIV-1. In words: XTT cytoprotection assay in CEM-SS cells (antiviral EC50). Conditions: for XTT Assay EC50: Table 1; for cytoprotective activity: HIV-1-infected CEM SS leukemia cells. It counts as cell-based. The source says: (§2) Briefly, the infected cells in culture are killed by the virus, and the cytotoxicity is detected by the formation of color due to the […] of a formazan dye (XTT) by enzymes released by the dying cells (Weislow et al., J. Natl. Cancer Inst. 81:577-586, 1989). An effective antiviral drug is able to protect the infected cells from cytotoxicity by inhibiting some vital function of the virus. […] FIGS. 4 and 5 show the cytoprotective activity of WMC26 and WMC42. Since many drugs can also be toxic to cells in their own right, a parallel experiment is carried out wherein uninfected cells are treated with the drugs until a concentration is reached where the cells are killed by the action of the drug.
(§3) As a result of these preliminary data, additional experiments were carried out to establish the antiviral activity in other cell lines, using a variety of protocols. The preliminary experiments in lymphocytes were confirmed using infected macrophages. Much more extensive experiments were carried out in HIV-1-infected CEM SS leukemia cells. […] However, two derivatives were found which had low antileukemic activity while maintaining high antiviral activity. […] This gives a therapeutic index of more than 3 orders of magnitude. The corresponding therapeutic index for WMC50 is about 100-200, which is quite acceptable. Additional experiments were carried out on WMC-70. […] Further, WMC-70 appears to affect post-transcription events in the virus. […] While the inhibition of integration appears to be the principal mechanism by which this compound exerts its antiviral activity, there are perhaps other mechanisms which are also involved in the therapeutic action of this drug, and by extension, of other antiviral drugs of this class.
(§4) The antiviral properties of the WMC series of compounds were evaluated. First, all compounds were tested for their ability to inhibit HIV-1 replication in cell culture using the XTT cytoprotection assay. This assay measures the concentration-dependent capacity of compounds to protect CEM-SS cells from the cytopathic effects of HIV-1. […] Thus, temacrazine was the most efficacious compound in the XTT cytoprotection assay. This conclusion was also reached when the compounds were tested for anti-HIV-1 activity against HIV-1ADA in human monocyte/macrophage cultures (Table 1).

The next data set concerns HIV-1ADA. Description: anti-HIV-1 activity in monocyte/macrophage cultures. It counts as cell-based. Conditions: Human immunodeficiency virus 1, read-out: Mo/Mφ EC50. Here is the method: as §4
The test system of data set [9] is human monocyte/macrophage cultures. In words: toxicity in monocyte/macrophage cultures. It counts as cell-based. Particulars: Homo sapiens, read-out: Mo/Mφ IC50. The protocol:
as §4

For data set [10], the system named is attachment of HIV-1RF to CEM-SS cells. In words: attachment of virions to CEM-SS cells (cell-bound p24 ELISA). It counts as cell-based. Conditions: Human immunodeficiency virus 1, CEM-SS, read-out: Attachment ID50. The text has this:
(§5) Based on the findings thus far our efforts have focused on biological assays of the temacrazine congener.
For orientation: ELISA stands for enzyme-linked immunosorbent assay.

The target in data set [11] is HIV-1 reverse transcriptase (Human immunodeficiency virus type 1 group M subtype B, UniProt P04585). In words: reverse transcriptase enzyme activity. It counts as biochemical.
Source text: as §5

For the next data set, the system named is CEM-SS cells. Description: XTT assay toxicity in CEM-SS cells (IC50). It counts as cell-based. Particulars: Homo sapiens, CEM-SS.
Source text: as §2, §3, §4
(In general: Tetrazolium dyes change colour on reduction, which living cells bring about.)

Data set [12] has as its target p7 nucleocapsid protein zinc fingers (Human immunodeficiency virus type 1 group M subtype B, UniProt P04591). Description: p7NC zinc finger fluorescence assays (TSQ, Trp37). It counts as biochemical, HIV-1.
Source text: as §5

The subject of data set [13] is HIV-1. Description: XTT cytoprotection assay in HIV-1 infected peripheral blood lymphocytes. It counts as cell-based. Particulars: for cytoprotective activity: HIV-1 infected lymphocytes versus uninfected cells; for therapeutic index: lymphocyte cytoprotection assay.
Source text: These compounds and several others were then examined in a cytoprotection assay involving peripheral blood lymphocytes which had been infected with HIV-1.
as §2

The next data set deals with leukemia. Particulars: Cholody et al. 1995; cited from earlier work.
Another data set deals with HIV-1 integrase (Human immunodeficiency virus type 1 group M subtype B, UniProt P04585). In words: in vitro integration and disintegration with full length purified integrase. It counts as biochemical. Conditions: full length purified HIV-1 integrase. More on the design: utilized the full length purified HIV-1 integrase.
The test system of a further data set is HIV-1RF. In words: nude mouse hollow fiber model of HIV-1 replication. Particulars: 40 mg/Kg q8h intraperitoneally. It counts as in vivo, nude mice. The text has this:
The novel mechanism of action of temacrazine and its broad range of activity against HIV-1 and its high therapeutic indexes led us to assess its in vivo and anti-viral properties in a nude mouse hollow fiber model of HIV-1 replication. Briefly, CEM-SS cells are infected with HIV-1RF and placed into hollow fibers and implanted intraperitoneal or subcutaneously into nude mice. […] Similarly, mice are being treated by oral and intravenous administration of temacrazine. Peritoneal washes and serum samples were collected and p24 expression determined by antigen capture. Intraperitoneal administration of temacrazine reduced the amount of detectable p24 in peritoneal washes by 5 to 10 fold independently of the dosage schedule. […] Thus, temacrazine reduces HIV-1 replication in vivo.

Read-outs that look alike come from different tables or passages of the source.

For `Cc1cn([C@H]2C[C@H](N=[N+]=[N-])[C@@H](CO)O2)c(=O)[nH]c1=O` [AZT, reference compound], the “CAT induction by TNFα” value in [1] is “inactive”.
`O=c1c2ccccc2n2cnc3ccc(NCCCN4CCN(CCCNc5ccc6ncn7c8ccccc8c(=O)c5c67)CC4)c1c32` [Compound 4, 1,4-bis[3-[(6-oxo-6H-imidazo[4,5,1-de]-acridin-5-yl)amino]propyl]piperazine]: in [2], the “mean IC70 (concentration resulting in 70% killing of the tumor cells)” value was determined as 2.3 mg/L. Also, the “sensitivity to the drug” value is recorded as “sensitive at the median dose” in [3]; “over twice the median dose” in data set [4]; “completely insensitive” in the data set with melanoma MEXF (514/12); “completely insensitive” in data set [5]; “very sensitive” in data set [6] (PRXF PX2M/27); “very sensitive” in [7]. Further, in data set [6] (PC3M), the IC70 entry is “less than 1 nanogram/mL”.
In the case of `CN(CCCNc1ccc2ncn3c4ccccc4c(=O)c1c23)CCCNc1ccc2ncn3c4ccccc4c(=O)c1c23` [Compound 682401], the “XTT Assay EC50” value in the data set with HIV-1 [8] (CEM-SS cells) is “Inactive”. Moreover, the EC50 in the data set on HIV-1ADA stood at 0.05 µM. For the same molecule, the IC50 is 1 µM in data set [9], more than 100 µM in data set [10] and more than 100 µM in [11].
Consider `CN(CCCNc1ccc2ncn3c4ccccc4c(=O)c1c23)CCCNc1ccc2nnn3c4ccccc4c(=O)c1c23` [Compound 682402], for which the “XTT Assay EC50” value in the data set with HIV-1 [8] (CEM-SS cells) was “Inactive”. For the same molecule, the EC50 in the data set with HIV-1ADA turned out to be 0.16 µM. For the same molecule, the IC50 is 10 µM in [9], more than 100 µM in data set [10] and more than 100 µM in data set [11].
With `CN(CCCNc1ccc2nnn3c4ccccc4c(=O)c1c23)CCCNc1ccc2nnn3c4ccccc4c(=O)c1c23` [Compound 682403], the “XTT Assay EC50” value in the data set on HIV-1 [8] (CEM-SS cells) was “Inactive”.
In the case of `O=c1c2ccccc2n2cnc3ccc(NCCCN4CCN(CCCNc5ccc6nnn7c8ccccc8c(=O)c5c67)CC4)c1c32` [Compound 682404], in the data set on HIV-1 [8] (CEM SS cells), the therapeutic index is listed as 100-200. In addition, the cytoprotective activity result with HIV-1 [8] is given as “cytoprotective at very low concentrations”. In addition, the EC50 was determined as 0.00041 µM with HIV-1 [8] (Human immunodeficiency virus 1, CEM-SS, read-out: XTT Assay EC50); 0.00041 µM with HIV-1 [8] (Human immunodeficiency virus 1, CEM-SS cells, read-out: EC50 antiviral value, XTT cytoprotection assay); 0.1 µM with HIV-1ADA. Also, the IC50 is 0.158 µM in the data set with CEM-SS cells (read-out: IC50 toxicity value, XTT assay); 0.158 µM in the data set with CEM-SS cells (read-out: XTT Assay IC50); 10 µM in [9]; more than 100 µM in data set [10]; 35 µM in data set [11].
With `Cc1cn([C@H]2C[C@H](N=[N+]=[N-])[C@@H](CO[P@](=O)(O)O[P@](=O)(O)OP(=O)(O)O)O2)c(=O)[nH]c1=O` [Compound A2TTP, reference compound], in data set [11] (rAdT Template/primer, control compound, read-out: I50 RT Enzyme Activity), the IC50 came to 0.027 µM.
As to `O=S1(=O)C[C@H](O)[C@H](O)CS1` [NSC 624151], in data set [12], the “NCp7 TSQ (Increase in RFU/90 min)” value is recorded as 17 (NSC 624151) RFU/90 min and the “NCp7 Trp37 (Decrease in RFU/10 min)” value is given as 145 (NSC 624151) RFU/10 min.
Turning to `CC(C)OC(=O)c1cc(NC(=S)OC(C)C)ccc1Cl` [UC38, reference compound], the IC50 in data set [11] (rCdG Template/primer, control compound, read-out: I50 RT Enzyme Activity) was found to be 0.006 µM.
Consider `CN(CCCNc1ccc2ncn3c4ccccc4c(=O)c1c23)CCCNc1ccc2ncn3c4ccccc4c(=O)c1c23` [WMC26], for which the cytoprotective activity entry was “able to protect the infected lymphocytes at concentrations far lower than those which resulted in drug induced killing” with HIV-1 [13] and “could not be shown to be cytoprotective” in the data set with HIV-1 [8]. The therapeutic index result with HIV-1 [13] was “very good therapeutic indices”. Moreover, the cytotoxicity to leukemia entry with leukemia was “very potently (nanomolar levels) cytotoxic”. Further, the “inhibition of integration and disintegration steps” value at HIV-1 integrase was “inhibited both the integration and disintegration steps”.
For `CN(CCCNc1ccc2ncn3c4ccccc4c(=O)c1c23)CCCNc1ccc2nnn3c4ccccc4c(=O)c1c23` [WMC42], in the data set on HIV-1 [13], the cytoprotective activity entry is reported as “able to protect the infected lymphocytes at concentrations far lower than those which resulted in drug induced killing” and the therapeutic index entry is reported as “very good therapeutic indices”. Moreover, the “inhibition of integration and disintegration steps” value against HIV-1 integrase was “inhibited both the integration and disintegration steps”.
As for `Nc1ccn([C@H]2CC[C@@H](CO)O2)c(=O)n1` [ddC, reference compound], in the data set on HIV-1RF, the “Peritoneal Wash p24, mean” value worked out at 7 pg p24 and the “Serum p24, mean” value amounted to 87 pg p24.
